Assay in all cases: inhibition of tumour cell growth, NCI panel, 48 h
Test [1] relates to TK-10.
Test [2] relates to KM12.
Test [3] concerns SNB-19.
Test [4] has as its system UO-31.
The test system of test [5] is HT-29.
In test [6] the test system is SK-MEL-2.
The test system of test [7] is U-251.
Test [8] deals with OVCAR-5.
In test [9] the test system is A549.
Test [10] has as its system HCT-15.
Test [11] deals with K562.
The subject of test [12] is SF-268.
Test [13] concerns SR.
Test [14] concerns ACHN.
Test [15] has as its system OVCAR-3.
For test [16], the system named is UACC-257.
The test system of test [17] is NCI-H226.
Test [18] relates to NCI-H522.
The test system of test [19] is SK-OV-3.
For test [20], the system named is Malme-3M.

Molecules are shown by their SMILES.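 These data come from cells grown in 96-well plates and exposed to compound for 48 hours at five concentrations. GI50: concentration for 50% inhibition of growth.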 Calls of active or inactive are those of the source. Cut-off read from the data, not from the text of the source: active = GI50 up to about 1.1 µM and inactive = higher. Where only a bound is given, the exact number is not on record here.

With `COc1cc(C2C(=O)C(Cl)N2Nc2nc(C)cc(O)n2)cc(OC)c1OC` (stereo not drawn), the GI50 in [1] was 24.3 µM (inactive); in test [2], 19 µM (inactive); in test [3] it was 30.4 µM (inactive); in test [4] it was 13.4 µM (inactive); in test [5], 23.8 µM (inactive); in [6], 11.2 µM (inactive). Moreover, the GI50 in test [7] is 13.3 µM (inactive); in test [8], 33 µM (inactive); in [9] it was 27.9 µM (inactive); in test [10] it was 11.5 µM; in test [11] it was 9.55 µM (inactive); in test [12], 7.01 µM (inactive). Besides, the GI50 in test [13] is 11.6 µM (inactive); in test [14], 11.1 µM (inactive); in test [15] it was 4.91 µM (inactive); in [16] it was 22.5 µM (inactive); in test [17] it was 22.1 µM (inactive).
For the compound `Cc1ccc(CCC(=O)C(=O)O)s1`, the GI50 in [18] is > 100 µM (inactive); in test [1], 78.7 µM (inactive); in test [2] it was > 100 µM (inactive); in [3], > 100 µM (inactive); in test [4], > 100 µM (inactive); in test [5], > 100 µM (inactive). The GI50 in test [19] was > 100 µM (inactive); in [6], > 100 µM (inactive); in [7], 81.7 µM (inactive); in test [8] it was > 100 µM (inactive); in [9], > 100 µM (inactive); in [10], more than 100 µM. The GI50 in test [11], in [12], in test [13], in [14], in test [15] and in [16] was > 100 µM (inactive) throughout. Besides, the GI50 in test [20] is > 100 µM (inactive).
Turning to `O=C(NC1C/C(=N/O)c2c(Br)sc(Br)c21)C(F)(F)F` (stereo not drawn), the GI50 is 26.1 µM (inactive) in [18]; 36.3 µM (inactive) in test [1]; 45 µM (inactive) in test [2]; 41.7 µM (inactive) in test [3]; 13.7 µM (inactive) in test [4]; 26.9 µM (inactive) in [5]. The GI50 was 47.6 µM (inactive) in test [19]; 11.4 µM (inactive) in [6]; 16.7 µM (inactive) in test [7]; > 100 µM (inactive) in [8]; 20 µM (inactive) in test [9]; 24.8 µM in [10]. Further, the GI50 is 20 µM (inactive) in test [11]; 23.6 µM (inactive) in test [12]; 34 µM (inactive) in test [14]; 35.8 µM (inactive) in test [15]; 22.9 µM (inactive) in [16]; 18.4 µM (inactive) in test [17]. For the same compound, the GI50 in test [20] is 45.9 µM (inactive).
Consider `CO[C@H]1C=C[C@@]23c4cc5c(cc4CO[C@]2(O)CN(C)[C@H]3C1)OCO5`, for which the GI50 in test [18], in [1], in test [2], in [3], in [4] and in [5] was > 100 µM (inactive) in each case. For the same compound, the GI50 in test [19] was > 100 µM (inactive); in test [6] it was > 100 µM (inactive); in test [7], > 100 µM (inactive); in test [8] it was > 100 µM (inactive); in test [9], > 100 µM (inactive); in test [10], more than 100 µM. Further, the GI50 in test [11], in test [12], in [14], in [15], in test [16] and in test [17] was > 100 µM (inactive) each time. The GI50 in test [20] is > 100 µM (inactive).
`O=C(O)c1ccc(NS(=O)(=O)Cc2ccccc2)cc1`: the GI50 in [18], in [1], in test [2], in [3], in test [4] and in test [5] was > 100 µM (inactive) each time. For the same compound, the GI50 was > 100 µM (inactive) in [19]; > 100 µM (inactive) in test [6]; > 100 µM (inactive) in [7]; > 100 µM (inactive) in [8]; > 100 µM (inactive) in [9]; more than 100 µM in test [10]. In addition, the GI50 in [11], in test [12], in test [13], in test [14], in [15] and in [16] was > 100 µM (inactive) throughout. Also, the GI50 in test [20] is > 100 µM (inactive).
`CC(SC(=S)N1CCOCC1)C(=O)Nc1nnc(-c2ccc(Cl)cc2)o1` (stereo not drawn): the GI50 in test [1] was 79.8 µM (inactive); in test [3] it was 40 µM (inactive); in [4], 22.4 µM (inactive); in test [5] it was 36.9 µM (inactive); in [19], 67.3 µM (inactive); in test [6] it was 31.8 µM (inactive). In addition, the GI50 in [7] is 35 µM (inactive); in test [8], 48.6 µM (inactive); in [9] it was 34.5 µM (inactive); in test [10], 20.7 µM; in test [12], 44.3 µM (inactive); in test [13], 8.07 µM (inactive). In addition, the GI50 in test [14] is 51.2 µM (inactive); in test [15] it was 25.8 µM (inactive); in test [16], 46.1 µM (inactive); in [17] it was 67.8 µM (inactive); in [20] it was > 100 µM (inactive).
As to `Clc1ccc(-c2nnc(-c3nsc4ccccc34)o2)cc1`, the GI50 in test [1] is 25.2 µM (inactive); in test [2], 51.5 µM (inactive); in test [3], 30.8 µM (inactive); in test [4], 18.8 µM (inactive); in [5] it was 25.9 µM (inactive); in [6] it was 28.5 µM (inactive). Moreover, the GI50 in test [7] is 15.2 µM (inactive); in [8] it was 58.7 µM (inactive); in [9], 40.6 µM (inactive); in test [10], 47.8 µM; in test [12] it was 18.5 µM (inactive); in test [13], > 10 µM (inactive). The GI50 is 25.1 µM (inactive) in [14], 14 µM (inactive) in test [15] and > 100 µM (inactive) in test [16].
On to `COc1ccc(/C=N/n2c(C)nc3c(sc(=S)n3-c3ccccc3)c2=O)cc1`, for which the GI50 was 21.4 µM (inactive) in test [18]; > 100 µM (inactive) in [1]; > 100 µM (inactive) in test [2]; 82.4 µM (inactive) in test [3]; > 100 µM (inactive) in [4]; 37.2 µM (inactive) in test [5]. The GI50 in test [19] is > 100 µM (inactive); in [7] it was > 100 µM (inactive); in test [8] it was > 100 µM (inactive); in [9], > 100 µM (inactive); in [11] it was 25.6 µM (inactive); in [12], 44.8 µM (inactive). Besides, the GI50 in test [13] was 44 µM (inactive); in test [14] it was > 100 µM (inactive); in test [15] it was 45.5 µM (inactive); in [16] it was 62.7 µM (inactive); in [17], > 100 µM (inactive).
As for `O=C(N/N=C/C=C/c1ccccc1)[C@H](O)[C@@H](O)C(=O)N/N=C/C=C/c1ccccc1`, the GI50 in [18] was > 100 µM (inactive); in [1] it was > 100 µM (inactive); in test [2], > 100 µM (inactive); in [3] it was > 100 µM (inactive); in [4] it was > 100 µM (inactive); in [19], > 10 µM (inactive). The GI50 in [6] was > 100 µM (inactive); in test [7] it was > 100 µM (inactive); in test [8], > 100 µM (inactive); in test [9] it was > 100 µM (inactive); in test [10], more than 100 µM; in test [11], > 100 µM (inactive). The GI50 in test [12], in test [13], in test [14], in [16] and in test [20] was > 100 µM (inactive) in each case.
Turning to `COC1OC(CS(=O)(=O)O)C(O)C(O)C1O` (stereo not drawn), the GI50 in test [1], in test [2], in test [3], in test [4], in test [5] and in test [19] was > 100 µM (inactive) in each case. Moreover, the GI50 is > 100 µM (inactive) in test [6]; > 100 µM (inactive) in test [7]; > 100 µM (inactive) in [8]; more than 100 µM in [10]; > 100 µM (inactive) in [11]; > 100 µM (inactive) in test [13]. The GI50 in test [15], in test [16], in test [17] and in test [20] was > 100 µM (inactive) each time.
Consider `COc1ccc(C(CC(=O)c2ccc(O)cc2)C(C(=O)c2ccc(O)cc2)C(c2ccc(OC)cc2)C2C(=O)NC(=S)NC2=O)cc1` (stereo not drawn), for which the GI50 was 14.9 µM (inactive) in [18]; 29.3 µM (inactive) in test [1]; 16.6 µM (inactive) in [2]; 21.8 µM (inactive) in test [3]; 17.5 µM (inactive) in test [4]; 27 µM (inactive) in test [5]. Besides, the GI50 in test [6] was 29.8 µM (inactive); in test [7], 24.5 µM (inactive); in test [8] it was 20.7 µM (inactive); in test [9], 21.9 µM (inactive); in [10] it was 21.2 µM; in test [11], 30.5 µM (inactive). Further, the GI50 is 15.7 µM (inactive) in test [12]; 38 µM (inactive) in [13]; 19.7 µM (inactive) in [14]; 17.5 µM (inactive) in [16]; 18.7 µM (inactive) in test [17].
Consider `O=C1CCC(c2ccccc2)=NN1c1nsc2ccccc12`, for which the GI50 in test [1], in test [2], in [3], in test [4], in [5] and in test [6] was > 100 µM (inactive) in each case. In addition, the GI50 in [7] is > 100 µM (inactive); in [8] it was > 100 µM (inactive); in test [9] it was > 100 µM (inactive); in test [10], more than 100 µM; in [11], 74 µM (inactive); in [12], > 100 µM (inactive). In addition, the GI50 in [13] was 58.9 µM (inactive); in test [14], > 100 µM (inactive); in [15] it was 83.8 µM (inactive); in [16], > 100 µM (inactive).

The values above are taken from ChEMBL document CHEMBL1201862, “PubChem BioAssay data set” (2004).
